Data as given in patent US4175081A, “5-Substituted thiadiazole ureas” (priority 1977, dated 1979).

Key:
Crabgrass (CG) [1] = experiment: Pre-emergence herbicide test; type: in vivo, Digitaria sanquinalis; details: Digitaria sanguinalis, pre-emergence, 336 h; 8 lb/acre; two weeks after treatment
Method in brief: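 Crabgrass (Digitaria sanquinalis) was surface seeded in 3' plastic pots of potting soil, covered with screened soil, and watered by sub-irrigation in greenhouse trays. Pots were seeded one day before spraying in a hood with a moving belt and fixed nozzle. Plants stayed in the greenhouse on sub-irrigation, and pre-emergence control was rated visually two weeks after treatment.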

Johnson grass (JG) [2] = experiment: Pre-emergence herbicide test; type: in vivo, Sorgum helepense; details: Sorghum halepense, 336 h, 8 lb/acre, two weeks after treatment
Method in brief: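 Pots seeded one day before spraying; compound applied pre-emergence at 8 lbs/acre (or 4 lbs/acre) in 38 gallons/acre spray volume. Sub-irrigated in greenhouse; injury/control rated visually two weeks after treatment.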

Barnyard grass (BG) [3] = experiment: Pre-emergence herbicide test; type: in vivo; details: Echinochloa crus-galli, 336 h, 8 lb/acre, two weeks after treatment
Method in brief: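 Barnyard grass surface-seeded in potting soil and sprayed pre-emergence one day after seeding, at 8 or 4 lb compound/acre in 38 gal/acre spray volume. Pots kept in greenhouse with sub-irrigation only; injury or control rated visually two weeks after treatment.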

Amaranth pigweed (PW) [4] = experiment: Pre-emergence herbicide test; type: in vivo, Amaranthus retroflexus; details: 336 h, 8 lb/acre, two weeks after treatment
Method in brief: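 Pigweed was surface-seeded in potted soil one day before spraying at 8 lbs compound per acre, or 4 lbs/acre, in 38 gallons per acre. Pots were kept in the greenhouse with sub-irrigation only; injury or control was rated visually two weeks after treatment.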

Turnip (TP) [5] = experiment: Pre-emergence herbicide test; type: in vivo, Brassica sp.; details: Brassica rapa, pre-emergence, 336 h; 8 lb/acre; two weeks after treatment
Method in brief: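 Turnip (Brassica sp.) seeds were surface sown in 3' plastic pots of potting soil, covered with a thin layer of screened soil, and sub-irrigated in greenhouse trays. Pots were seeded one day ahead of treatment, sprayed pre-emergence under a hood with a fixed nozzle and moving belt, then kept in the greenhouse.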

Cotton (CT) [6] = experiment: Pre-emergence herbicide test; type: in vivo, Gossypium hirsutum var. DPL smooth leaf; details: Gossypium hirsutum, 336 h, 8 lb/acre, two weeks after treatment
Method in brief: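 Crop and weed species seeded one day before treatment, then sprayed pre-emergence at 8 lbs actual compound per acre (also 4 lbs/acre formulations) in 38 gallons per acre. Pots kept in greenhouse with sub-irrigation only; injury or control visually rated two weeks after treatment.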

Corn (CN) [7] = experiment: Pre-emergence herbicide test; type: in vivo; details: Zea mays, 336 h, 8 lb/acre, two weeks after treatment
Method in brief: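 Four corn seeds per pot, sown at seed-diameter depth one day before spraying, got soil surface treatment at 8 lbs/acre (4 lbs/acre formulations also prepared) in 38 gallons/acre. Pots were greenhouse-held with sub-irrigation only. Injury or control was scored visually two weeks after treatment.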

Bean (BN) [8] = experiment: Pre-emergence herbicide test; type: in vivo, Phaseolus vulgaris var. Black Valentine; details: Phaseolus vulgaris, 336 h, 8 lb/acre, two weeks after treatment
Method in brief: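 Black Valentine bean was seeded in potting soil one day before spraying. Compound was applied pre-emergence at 8 lbs/acre (also 4 lbs/acre) in 38 gallons per acre. Plants were sub-irrigated and injury or control was rated visually after two weeks.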

Crabgrass (CG) [9] = experiment: Post-emergence herbicide test; type: in vivo, Digitaria sanquinalis; details: Digitaria sanguinalis, post-emergence, 336 h; 8 lb/acre; two weeks after treatment
Method in brief: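 Crabgrass (Digitaria sanquinalis) was surface seeded individually in 3' plastic pots of potting soil, covered with screened soil, and watered by sub-irrigation in greenhouse trays. Planting was staggered so seedlings reached the target stage together. Post-emergence sprays were applied in a hood with a removable belt and fixed nozzle, and control was visually rated two weeks after treatment.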

[10] = system: Yellow foxtail grass (YF); experiment: Post-emergence herbicide test; type: in vivo, Setaria glauca; details: Setaria, 336 h, 8 lb/acre, two weeks after treatment
Protocol: (§1) Yellow foxtail grass (YF)--Setaria glauca
(§2) All crop and weed species were planted individually in 3' plastic pots containing potting soil. Four seeds each of corn, cotton, and snapbeans were seeded to a depth equal to the diameter of the seed. All other species were surface seeded and sprinkled with screened soil in an amount sufficient to cover the seed. Immediately after planting, all pots were watered by sub-irrigation in greenhouse trays. Pots for the pre-emergence phase were seeded one day before treatment.
Planting dates for the post-emergence phase were varied so that all seedlings would reach the desired stage of development simultaneously. The proper stage of seedling development for treatment in the post-emergence phase is as follows:
(§3) Compounds were tested at rates of application equivalent to 8 lbs. of actual compound per acre in a spray volume of 38 gallons per acre. Spray hood constants required to deliver the above volume are as follows:
(§4) Formulations for spray applications were prepared in 50 ml volumes with the following three components:
(§5) Formulations for the 4 lbs/acre rate were prepared by adjusting the amount of active ingredient accordingly.
(§6) Spray applications were made in a hood containing a removable belt and fixed spray nozzle. For passage through the spray hood, one pot of each specie (pre-emergence phase) was placed on the rear half of the flat. Treatments were removed to the greenhouse after spraying. Watering during the observation period was done only by sub-irrigation.
(§7) Two weeks after treatment, pre- and post-emergence injury or control was visually rated, and the results were as shown in the following tables. Pre-emergence data are provided in TABLE III and post-emergence data are provided in TABLE IV, for compounds having the formula illustrated in TABLE I. Correspondingly, pre-emergence and post-emergence data, respectively, are set forth in TABLES V AND VI, for compounds having the formula illustrated in TABLE II.

Johnson grass (JG) [11] = experiment: Post-emergence herbicide test; type: in vivo, Sorgum helepense; details: Sorghum halepense, 336 h, 8 lb/acre, two weeks after treatment
Method in brief: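 Greenhouse pot-grown seedlings sprayed post-emergence at 8 lbs compound per acre (some at 4 lbs/acre) in 38 gallons per acre spray volume. Sub-irrigated thereafter. Injury/control rated visually two weeks after treatment.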

Barnyard grass (BG) [12] = experiment: Post-emergence herbicide test; type: in vivo; details: Echinochloa crus-galli, 336 h, 8 lb/acre, two weeks after treatment
Method in brief: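 Greenhouse pot-grown barnyard grass seedlings sprayed post-emergence at 8 lbs active compound per acre (some at 4 lbs/acre) in 38 gallons per acre, then sub-irrigated. Injury or control rated visually two weeks after treatment.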

Amaranth pigweed (PW) [13] = experiment: Post-emergence herbicide test; type: in vivo, Amaranthus retroflexus; details: 336 h, 8 lb/acre, two weeks after treatment
Method in brief: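 Pot-grown pigweed was sprayed post-emergence at the 1–2 true-leaf stage with compound at rates equivalent to 8 lbs per acre (formulations also prepared for 4 lbs/acre) in 38 gallons per acre, using a hood with fixed nozzle. Plants were sub-irrigated in the greenhouse, and injury or control was rated visually two weeks after treatment.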

Turnip (TP) [14] = experiment: Post-emergence herbicide test; type: in vivo, Brassica sp.; details: Brassica rapa, post-emergence, 336 h; 8 lb/acre; two weeks after treatment
Method in brief: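 A greenhouse post-emergence herbicide test on turnip. Seeds were sown on the surface of potting soil in 3' plastic pots, lightly covered with screened soil and watered from below. Planting was timed so seedlings had 1 or 2 true leaves above the cotyledons at spraying, done in a hood with a fixed nozzle. Control or injury was scored by eye after two weeks.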

Cotton (CT) [15] = experiment: Post-emergence herbicide test; type: in vivo, Gossypium hirsutum var. DPL smooth leaf; details: Gossypium hirsutum, post-emergence, 336 h; 8 lb/acre; two weeks after treatment
Method in brief: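 Cotton (Gossypium hirsutum var. DPL smooth leaf) was grown in 3' plastic pots of potting soil, four seeds per pot, planted at a depth equal to the seed diameter and watered by sub-irrigation. At the stage of expanded cotyledons with the first true leaf 1' long, plants were sprayed post-emergence in a hood with a fixed nozzle over a moving belt. Percent control was rated visually two weeks later.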

Corn (CN) [16] = experiment: Post-emergence herbicide test; type: in vivo; details: Zea mays, 336 h, 8 lb/acre, two weeks after treatment
Method in brief: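 Greenhouse seedlings grown in potting soil and sprayed post-emergence at 8 lbs compound/acre (formulations also made for 4 lbs/acre) in 38 gallons/acre spray volume. Watering by sub-irrigation only. Injury or control rated visually two weeks after treatment.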

Bean (BN) [17] = experiment: Post-emergence herbicide test; type: in vivo, Phaseolus vulgaris var. Black Valentine; details: Phaseolus vulgaris, post-emergence, 336 h; 8 lb/acre; two weeks after treatment
Method in brief: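 Snapbean (Phaseolus vulgaris var. Black Valentine) was tested post-emergence. Four seeds were sown in 3' plastic pots of potting soil at a depth equal to the seed diameter, then sub-irrigated in greenhouse trays. Planting dates were staggered so plants were sprayed once primary leaves had expanded, with the growing point at the primary leaf nodes.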

[18] = system: Yellow foxtail grass (YF); experiment: Pre-emergence herbicide test; type: in vivo, Setaria glauca; details: Setaria, 336 h, 8 lb/acre, two weeks after treatment
Protocol: as §1, §2, §3, §4, §5, §6, §7

SMILES	pest or weed control at 8966.8 g/ha (Crabgrass (CG) [1])	pest or weed control at 8966.8 g/ha (Johnson grass (JG) [2])	pest or weed control at 8966.8 g/ha (Barnyard grass (BG) [3])	pest or weed control at 8966.8 g/ha (Amaranth pigweed (PW) [4])	pest or weed control at 8966.8 g/ha (Turnip (TP) [5])	pest or weed control at 8966.8 g/ha (Cotton (CT) [6])	pest or weed control at 8966.8 g/ha (Corn (CN) [7])	pest or weed control at 8966.8 g/ha (Bean (BN) [8])	pest or weed control at 8966.8 g/ha (Crabgrass (CG) [9])	pest or weed control at 8966.8 g/ha [10]	pest or weed control at 8966.8 g/ha (Johnson grass (JG) [11])	pest or weed control at 8966.8 g/ha (Barnyard grass (BG) [12])	pest or weed control at 8966.8 g/ha (Amaranth pigweed (PW) [13])	pest or weed control at 8966.8 g/ha (Turnip (TP) [14])	pest or weed control at 8966.8 g/ha (Cotton (CT) [15])	pest or weed control at 8966.8 g/ha (Corn (CN) [16])	pest or weed control at 8966.8 g/ha (Bean (BN) [17])	pest or weed control at 8966.8 g/ha [18]
CCc1nnc(NC(=O)NC)s1 [Example 3, 1-Methyl-3-[5-Ethyl-2-(1,3,4-Thiadiazolyl)] Urea]	10%	20%	10%	70%	70%	50%	100%	90%	20%	20%	20%	20%	100%	100%	90%	20%	60%	
CCCNC(=O)Nc1nnc(C(F)(F)F)s1 [Example 10]	20%	20%	10%		10%	80%	50%	80%	50%	20%	30%	40%	100%	60%	60%	40%	50%	20%
CC(C)NC(=O)Nc1nnc(C(F)(F)F)s1 [Example 11]	20%	30%	10%		10%	80%	80%	30%	50%	20%	30%	40%	100%	60%	60%	40%	50%	10%
